The values that follow come from patent US9422357.

For the data set the following is noted: disulfide bond; 38-membered ring.

Consider S1C(disialo)•N19C(GlcNAc)-SRIF28, for which the ring closure, yield after HPLC was determined as 59%.
